The values that follow come from patent publication US20220089636A1, “TETRAZOLONE SUBSTITUTED STEROIDS AND USE THEREOF” (Beijing Xuanyi PharmaSciences Co., Ltd., priority 2019, published 2022).

Molecules are shown by their SMILES. pEC50: −log10 of the molar value. Like-named read-outs stand apart in the source and are kept apart here.

A short description of series [1]: Mouse PK study (i.v. and p.o.). To be noted: plasma, male CD1 mice; for half-life: read-out: T1/2 (hr) i.v. (converted); for Vd: read-out: Vss; for bioavailability: 5 mg/kg p.o. vs 1 mg/kg i.v. It is filed as in vivo. How it is done: Test compounds were dosed to male CD1 mice at 5 mg/kg by oral gavage (p.o.) or 1 mg/kg by intravenous injection (i.v.). Blood samples were taken at 0.083, 0.25, 0.5, 1.0, 3.0, 6.0 and 24 hours post i.v. dosing and at 0.25, 0.5, 1.0, 3.0, 6.0 and 24 hours post p.o. dosing. The plasma concentration of compounds were determined by HPLC.

A further series concerns the target T1, α1β2γ2 GABAA receptor (Homo sapiens, UniProt P14867+P47870).
T1 construct: expressed in transfected cells
In words: Patch clamp electrophysiology assay of recombinant α1β2γ2 GABAA receptors (potentiation of 2 μM GABA-evoked Cl- current). It is filed as cell-based. Conditions: HEK293T cells stably transfected with α1β2γ2 GABAA; for pEC50: whole cell, 2 μM GABA, -80 mV; for Emax: HEK-293T, potentiation of 2 μM GABA current. Here is the method: Cellular electrophysiology is used to measure the pharmacological properties of GABAA receptor modulators in heterologous cell systems. Each compound is tested for its ability to affect GABA mediated currents at a submaximal agonist dose (GABA EC20=2 μM). HEK293T cells are stably transfected with the α1β2γ2 subunits of the GABAA receptor. Flasks or dishes of HEK293 GABAA cells were maintained in the medium (DMEM, 11% (v/v) heat inactivated FBS, 100 or 200 μg/ml G418, 40 μg/ml Hygromycin B, 80 μg/ml Zeocin) and incubated at 37° C. in a humidified incubator with 5% CO2. 12 to 24 hours prior to electrophysiological recordings, the cells were plated on glass cover slips placed in culture dishes and maintained under the same incubation and media conditions. The number of cells being plated on the cover slip should reach a confluence rate at which majority of the cells are single.
For the electrophysiological recordings in the study the following external and internal solutions were used (Table 1):
HEKA EPC 10 USB patch clamp amplifier (from HEKA Elektronik, Germany) was used in the whole cell recording. A cover slip with plenty of single HEK293T-GABAA cells on the surface was removed and placed into a continuously perfused (approximately 1-2 ml/minute) recording chamber mounted on an inverted microscope. GABAA Cl^− current was recorded from single cell using standard whole cell recording techniques. 2 μM GABA was used to evoke GABAA Cl^− current (2 μM of GABA was the EC10-EC20 value of agonist GABA obtained internally on the stable GABAA cells used in this study). After achieving break-in (whole-cell) configuration, the cell was voltage clamped at a holding potential of −80 mV. Only stable cells meeting the recording parameters (membrane resistance Rm>500 MΩ, access resistance (Ra)<15 MΩ, leak current<100 pA in 90% of the recording time) were used. 2 μM GABA was applied to the cell to induce stable Cl^− current first as control for about 2 seconds, test compounds (i.e., compounds of formula (AI), (I), (AII), and (II), or any subgenera thereof) were followed to be applied to the cells for 3 min, then 2 μM GABA was applied to observe the potentiation effect on the GABAA Cl^− current. Different doses of test compound from low to high were applied to the same cell when the cell was stable. A cell was considered stable when current size evoked by 2 μM GABA applied to the cell from time to time was similar. To minimize the possible desensitation of GABAA Cl^− current, duration between applications of test articles was set to 180 seconds.
Test compounds were dissolved in DMSO to form stock solutions (10 mM). Test compounds were diluted to 0.003, 0.01, 0.03, 0.1, 0.3, 1, 3 and 10 μM in bath solution. AU concentrations of test articles were tested on each cell. Data were analyzed using software provided by HEKA, Microsoft Excel and Graphpad Prism (Table 2).
(In general: Patch clamp records ionic current or voltage across a cell membrane.)

Where [2] appears, read: iv, 1 mg/kg i.v., read-out: AUClast (hr*ng/mL) i.v.
[3] abbreviates: po, 5 mg/kg p.o., read-out: AUClast (hr*ng/mL) p.o.

T1 sequence (P14867 28-456): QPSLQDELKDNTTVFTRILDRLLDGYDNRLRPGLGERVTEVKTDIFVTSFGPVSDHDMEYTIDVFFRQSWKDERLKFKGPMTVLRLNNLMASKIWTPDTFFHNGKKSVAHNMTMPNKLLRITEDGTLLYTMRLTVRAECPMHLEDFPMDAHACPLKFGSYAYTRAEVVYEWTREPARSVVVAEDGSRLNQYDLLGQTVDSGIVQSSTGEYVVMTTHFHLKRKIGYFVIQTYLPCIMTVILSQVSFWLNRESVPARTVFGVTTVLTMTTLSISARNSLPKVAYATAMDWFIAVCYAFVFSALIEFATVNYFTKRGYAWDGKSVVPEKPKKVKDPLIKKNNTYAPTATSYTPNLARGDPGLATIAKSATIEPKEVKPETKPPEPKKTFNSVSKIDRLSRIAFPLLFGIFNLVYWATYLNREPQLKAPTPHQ
T1 sequence (P47870 25-512 limits assumed): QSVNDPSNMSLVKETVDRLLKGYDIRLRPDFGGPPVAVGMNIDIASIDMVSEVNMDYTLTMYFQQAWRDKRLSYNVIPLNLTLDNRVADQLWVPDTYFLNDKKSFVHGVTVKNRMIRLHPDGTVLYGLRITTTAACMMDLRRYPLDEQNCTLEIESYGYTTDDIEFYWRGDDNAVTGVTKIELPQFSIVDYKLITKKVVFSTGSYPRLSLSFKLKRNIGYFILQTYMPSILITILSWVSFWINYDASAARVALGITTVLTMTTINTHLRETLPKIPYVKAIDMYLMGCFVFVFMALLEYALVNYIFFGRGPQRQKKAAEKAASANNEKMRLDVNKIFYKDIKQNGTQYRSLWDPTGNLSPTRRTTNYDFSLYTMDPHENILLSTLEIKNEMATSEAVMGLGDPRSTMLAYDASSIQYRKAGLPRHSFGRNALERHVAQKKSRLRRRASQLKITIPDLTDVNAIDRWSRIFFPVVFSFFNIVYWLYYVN
T1 sequence (P18507 40-475 partner): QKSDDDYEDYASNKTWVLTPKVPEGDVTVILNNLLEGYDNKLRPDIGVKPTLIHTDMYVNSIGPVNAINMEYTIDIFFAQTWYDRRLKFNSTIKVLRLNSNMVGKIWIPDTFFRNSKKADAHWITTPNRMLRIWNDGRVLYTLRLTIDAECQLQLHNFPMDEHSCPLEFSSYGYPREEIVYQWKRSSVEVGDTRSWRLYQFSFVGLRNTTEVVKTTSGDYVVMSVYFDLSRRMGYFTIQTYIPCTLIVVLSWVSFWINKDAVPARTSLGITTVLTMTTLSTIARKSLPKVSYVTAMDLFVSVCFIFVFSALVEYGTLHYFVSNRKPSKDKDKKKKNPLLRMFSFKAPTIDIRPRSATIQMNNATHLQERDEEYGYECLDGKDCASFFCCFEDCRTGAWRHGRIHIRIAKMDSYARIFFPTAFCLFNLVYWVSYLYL

As for `Cn1ccc(-n2nnn(CC(=O)[C@H]3CC[C@H]4[C@@H]5CC[C@@H]6C[C@](C)(O)CC[C@@H]6[C@H]5CC[C@]34C)c2=O)n1` [Example 27, 1-(2-((3R,5R,8R,9R,10S,13S,14S,17S)-3-hydroxy-3,13-dimethylhexadecahydro-1H-cyclopenta[a]phenanthren-17-yl)-2-oxoethyl)-4-(1-methyl-1H-pyrazol-3-yl)-1,4-dihydro-5H-tetrazol-5-one], in series [1] (iv, 1 mg/kg i.v.), the clearance is 14.5 mL/min/kg, the half-life is 1.09 h and the Vd was determined as 1.14 L/kg. The AUC(0-t) in series [1] (setting [2]) turned out to be 1110 ng·h/mL. Besides, in series [1] (po, 5 mg/kg p.o.), the Cmax (as a rule, the maximum level reached in the sampled fluid or tissue) came to 1070 ng/mL and the Tmax (in general, the time from dosing to the highest level) was 60 min. Further, the bioavailability in series [1] (po) came to 153%. The AUC(0-t) in series [1] (setting [3]) came out at 8770 ng·h/mL. Further, at α1β2γ2 GABAA receptor, the pEC50 (usually −log10 of the EC50, conventionally taken in molar units) was 6.92.
For `COc1ccc(-n2nnn(CC(=O)[C@H]3CC[C@H]4[C@@H]5CC[C@@H]6C[C@](C)(O)CC[C@@H]6[C@H]5CC[C@]34C)c2=O)cc1` [Example 15, 1-(2-((3R,5R,8R,9R,10S,13S,14S,17S)-3-hydroxy-3,13-dimethylhexadecahydro-1H-cyclopenta[a]phenanthren-17-yl)-2-oxoethyl)-4-(4-methoxyphenyl)-1,4-dihydro-5H-tetrazol-5-one], in series [1] (iv, 1 mg/kg i.v.), the clearance is 30 mL/min/kg, the half-life is 1.05 h and the Vd is 1.76 L/kg. Further, the AUC(0-t) in series [1] (setting [2]) amounted to 542 ng·h/mL. Further, in series [1] (po, 5 mg/kg p.o.), the Cmax stood at 106 ng/mL and the Tmax stood at 60 min. For the same molecule, in series [1] (po), the bioavailability came out at 10.8%. Besides, the AUC(0-t) in series [1] (setting [3]) was 292 ng·h/mL. Moreover, at α1β2γ2 GABAA receptor, the pEC50 was 8.30.
In the case of `C[C@@]1(O)CC[C@H]2[C@H](CC[C@@H]3[C@@H]2CC[C@]2(C)[C@@H](C(=O)Cn4nnn(-c5cnco5)c4=O)CC[C@@H]32)C1` [Example 23, 1-(2-((3R,5R,8R,9R,10S,13S,14S,17S)-3-hydroxy-3,13-dimethylhexadecahydro-1H-cyclopenta[a]phenanthren-17-yl)-2-oxoethyl)-4-(oxazol-5-yl)-1,4-dihydro-5H-tetrazol-5-one], the negative logarithm of the EC50 (pEC50) on α1β2γ2 GABAA receptor is 7.02.
For the molecule `C[C@@]1(O)CC[C@H]2[C@H](CC[C@@H]3[C@@H]2CC[C@]2(C)[C@@H](C(=O)Cn4nnn(-c5cccnc5)c4=O)CC[C@@H]32)C1` [Example 18, 1-(2-((3R,5R,8R,9R,10S,13S,14S,17S)-3-hydroxy-3,13-dimethylhexadecahydro-1H-cyclopenta[a]phenanthren-17-yl)-2-oxoethyl)-4-(pyridin-3-yl)-1,4-dihydro-5H-tetrazol-5-one], in series [1] (iv, 1 mg/kg i.v.), the clearance was 56.5 mL/min/kg, the half-life was 0.29 h and the Vd amounted to 1.33 L/kg. Moreover, in series [1] (setting [2]), the AUC(0-t) came to 270 ng·h/mL. In addition, in series [1] (po, 5 mg/kg p.o.), the peak level (Cmax) was 297 ng/mL and the time to peak (Tmax) was 60 min. Also, the bioavailability in series [1] (po) was 50.1%. Further, the AUC(0-t) in series [1] (setting [3]) came to 692 ng·h/mL. Further, at α1β2γ2 GABAA receptor, the pEC50 was 7.41 and the Emax (commonly the greatest response seen or fitted, relative to the assay's reference) amounted to 757%.
As for `C[C@@]1(O)CC[C@H]2[C@H](CC[C@@H]3[C@@H]2CC[C@]2(C)[C@@H](C(=O)Cn4nnn(C(F)(F)F)c4=O)CC[C@@H]32)C1` [Example 22, 1-(2-((3R,5R,8R,9R,10S,13S,14S,17S)-3-hydroxy-3,13-dimethylhexadecahydro-1H-cyclopenta[a]phenanthren-17-yl)-2-oxoethyl)-4-(trifluoromethyl)-1,4-dihydro-5H-tetrazol-5-one], in series [1] (iv, 1 mg/kg i.v.), the clearance was 130 mL/min/kg, the half-life is 0.3 h and the Vd came out at 2.59 L/kg. The AUC(0-t) in series [1] (setting [2]) was 118 ng·h/mL. Moreover, in series [1] (po, 5 mg/kg p.o.), the Cmax worked out at 213 ng/mL and the Tmax was 30 min. Further, in series [1] (po), the bioavailability came out at 34.2%. In series [1] (setting [3]), the AUC(0-t) came out at 203 ng·h/mL. In addition, the pEC50 on α1β2γ2 GABAA receptor is 7.85.
With `COc1cccc(-n2nnn(CC(=O)[C@H]3CC[C@H]4[C@@H]5CC[C@@H]6C[C@](C)(O)CC[C@@H]6[C@H]5CC[C@]34C)c2=O)c1` [Example 16, 1-(2-((3R,5R,8R,9R,10S,13S,14S,17S)-3-hydroxy-3,13-dimethylhexadecahydro-1H-cyclopenta[a]phenanthren-17-yl)-2-oxoethyl)-4-(3-methoxyphenyl)-1,4-dihydro-5H-tetrazol-5-one], in series [1] (iv, 1 mg/kg i.v.), the clearance is 33 mL/min/kg, the half-life is 0.9 h and the Vd worked out at 1.54 L/kg. Also, the AUC(0-t) in series [1] (setting [2]) was 500 ng·h/mL. Further, in series [1] (po, 5 mg/kg p.o.), the Cmax stood at 109 ng/mL and the Tmax turned out to be 30 min. In series [1] (po), the bioavailability turned out to be 15.1%. For the same molecule, the AUC(0-t) in series [1] (setting [3]) came to 330 ng·h/mL. In addition, at α1β2γ2 GABAA receptor, the pEC50 is 8.27 and the Emax turned out to be 578%.
For `C[C@@]1(O)CC[C@H]2[C@H](CC[C@@H]3[C@@H]2CC[C@]2(C)[C@@H](C(=O)Cn4nn[nH]c4=O)CC[C@@H]32)C1` [Example 19, 1-(2-((3R,5R,8R,9R,10S,13S,14S,17S)-3-hydroxy-3,13-dimethylhexadecahydro-1H-cyclopenta[a]phenanthren-17-yl)-2-oxoethyl)-1,4-dihydro-5H-tetrazol-5-one], the pEC50 on α1β2γ2 GABAA receptor was 4.62.
For the molecule `Cn1cc(-n2nnn(CC(=O)[C@H]3CC[C@H]4[C@@H]5CC[C@@H]6C[C@](C)(O)CC[C@@H]6[C@H]5CC[C@]34C)c2=O)cn1` [Example 29, 1-(2-((3R,5R,8R,9R,10S,13S,14S,17S)-3-hydroxy-3,13-dimethylhexadecahydro-1H-cyclopenta[a]phenanthren-17-yl)-2-oxoethyl)-4-(1-methyl-1H-pyrazol-4-yl)-1,4-dihydro-5H-tetrazol-5-one], at α1β2γ2 GABAA receptor, the negative logarithm of the EC50 (pEC50) was 6.55.
On the same count and under the same terms, to `C[C@@]1(O)CC[C@H]2[C@H](CC[C@@H]3[C@@H]2CC[C@]2(C)[C@@H](C(=O)Cn4nnn(C5CC5)c4=O)CC[C@@H]32)C1` [Example 6, 1-cyclopropyl-4-(2-((3R,5R,8R,9R,10S,13S,14S,17S)-3-hydroxy-3,13-dimethylhexadecahydro-1H-cyclopenta[a]phenanthren-17-yl)-2-oxoethyl)-1,4-dihydro-5H-tetrazol-5-one] belongs 6.18; to `C[C@@]1(O)CC[C@H]2[C@H](CC[C@@H]3[C@@H]2CC[C@]2(C)[C@@H](C(=O)Cn4nnn(C5CCCCC5)c4=O)CC[C@@H]32)C1` [Example 9, 1-cyclohexyl-4-(2-((3R,5R,8R,9R,10S,13S,14S,17S)-3-hydroxy-3,13-dimethylhexadecahydro-1H-cyclopenta[a]phenanthren-17-yl)-2-oxoethyl)-1,4-dihydro-5H-tetrazol-5-one], 5.86; to `C[C@@]1(O)CC[C@H]2[C@H](CC[C@@H]3[C@@H]2CC[C@]2(C)[C@@H](C(=O)Cn4nnn(CC#N)c4=O)CC[C@@H]32)C1` [Example 20, 2-(4-(2-((3R,5R,8R,9R,10S,13S,14S,17S)-3-hydroxy-3,13-dimethylhexadecahydro-1H-cyclopenta[a]phenanthren-17-yl)-2-oxoethyl)-5-oxo-4,5-dihydro-1H-tetrazol-1-yl)acetonitrile], 6.25.
Same read-out and setting: to `C[C@@]1(O)CC[C@H]2[C@H](CC[C@@H]3[C@@H]2CC[C@]2(C)[C@@H](C(=O)Cn4nnn(CCC#N)c4=O)CC[C@@H]32)C1` [Example 21, 3-(4-(2-((3R,5R,8R,9R,10S,13S,14S,17S)-3-hydroxy-3,13-dimethylhexadecahydro-1H-cyclopenta[a]phenanthren-17-yl)-2-oxoethyl)-5-oxo-4,5-dihydro-1H-tetrazol-1-yl)propanenitrile] belongs 6.54.
